From patent US7105553B2, “Thiazolyl amide derivatives” (Bayer Aktiengesellschaft, priority 1999, dated 2006)
Read-outs that look alike come from different tables or passages of the source.

Experiments:
HSV-1 F = assay: anti-HSV screening test (cytopathogenic effect, fluorescein diacetate read-out), HSV-1 F on Vero cells; format: cell-based; settings: read-out: IC50 HSV-1 F/Vero
Protocol: (§1) HSV (HSV-1 Walki, HSV-1F or HSV-2G) was cultivated on Vero cells (ATCC CCL-81) under the following conditions: The cells were grown in M199 medium (5% foetal calf serum, 2 mM glutamine, 100 IU/ml penicillin, 100 μg/ml streptomycin) in cell culture bottles at 37° C. and 5% CO2. The cells were splitted twice per week, in each case 1:4. For the infection, the medium was removed, the cells were washed with Hank's solution, detached using 0.05% trypsin, 0.02% EDTA (Seromed L2143) and incubated at a density of 4×10^5 cells per ml under the abovementioned conditions for 24 hours. The medium was then removed and the virus solution was added at an m.o.i of <0.05 in a volume of 2 ml per 175 cm^2 of surface. The medium was incubated under the conditions mentioned for one hour and then made up to a volume of 50 ml per 175 cm^2 bottle. […] The virus was released by freezing (−80° C.) and thawing (37° C.) the cultures twice. Cell debris was removed by centrifugation (300 g, 10 min, 4° C.) and the supernatant was frozen down in aliquots at −80° C.
(§2) The anti-HSV action was determined in a screening test system in 96-well microtitre plates using various cell lines of neuronal, lymphoid and epithelial origin, such as, for example, Vero (kidney cell line of the green monkey), MEF (murine embryonal fibroblasts), HELF (humane embryonal fibroblasts), NT2 (humane neuronal cell line) or Jurkat (humane lymphoid T-cell line).
(§3) The substances (50 mM), dissolved in DMSO (dimethyl sulphoxide), are examined on microtitre plates (for example 96-well MTP) in final concentrations of 250-0.5 μM (micromolar) in two replications (4 substances/plate). In the case of potent substances, the dilutions are continued for several plates up to 0.5 pM (picomolar). Also examined are toxic and cytostatic effects of the substances. After an appropriate dilution of the substances (1:2) on the microtitre plate in medium, a suspension of cells (1×10^4 cells per well) such as, for example, of Vero cells in M199 (medium 199) with 5% foetal calf serum, 2 mM glutamine and optionally 100 IU/ml penicillin and 100 μg/ml streptomycin or of MEF cells in EMEM (Eagle's Minimum Essential Medium) with 10% foetal calf serum, 2 mM glutamine and optionally 100 IU/ml penicillin and 100 μg/ml streptomycin, or of HELF cells in EMEM with 10% foetal calf serum, 2 mM glutamine and optionally 100 IU/ml penicillin and 100 μg/ml streptomycin, or of NT2- and Jurkat cells in DMEM ([…] glucose plus pyridoxin) with 10% foetal calf serum, 2 mM glutamine, 1 mM sodium pyruvate, non-essential amino acids and optionally 100 IU/ml penicillin and 100 μg/ml streptomycin is added to each well and the cells in the relevant wells are infected with an appropriate amount of virus (HSV-1 F or HSV-2 G having an m.o.i (multiplicity of infection) of 0.0025 for HELF, Vero and MEF cells and an m.o.i of 0.1 for NT2 and Jurkat cells). The plates are then incubated at 37° C. in a CO2 incubator (5% CO2) for several days. […] The plates are initially evaluated visually using a microscope and then analysed using a fluorescent dye. To this end, the cell supernatant of all wells of the MTP is aspirated and the wells are filled with 200 μl of PBS wash solution. The PBS is then aspirated and all the wells are filled with 200 μl of fluorescent dye solution (fluorescein diacetate, 10 μg/ml in PBS). After an incubation time of 30-90 min, the test plates are read in a fluorescence detector at an excitation wavelength of 485 nm and an emission wavelength of 538 nm.

HSV-2 G = assay: anti-HSV screening test (cytopathogenic effect, fluorescein diacetate read-out), HSV-2 G on Vero cells; format: cell-based; settings: read-out: IC50 HSV-2 G/Vero
Protocol: as §1, §2, §3

HSV-2 = assay: in-vivo action: survival of intranasally HSV-infected mice; parameters: species or system mice (BALB/cABom); settings: Human alphaherpesvirus 2; HSV-2, intranasal infection 5×10^4 Pfu, treatment 3 times per day for 5 days from 6 hours after infection; read-out: ED50 (50% of the animals survive at this dose)
Protocol: 6 week-old female mice, BALB/cABom strain were obtained from a commercial breeder (Bomholtgard Breeding and Research Centre Ltd.).
The animals were anaesthetized with diethyl ether (Merck) in a sealed glass vessel. 50 μl of a dilution of the virus stock (infection dose 5×10^4 Pfu) were introduced into the nose of the anaesthetized animals using an Eppendorf pipette. In 90-100% of the animals, this infection dose causes death by a generalized infection with prominent respiratory and central-nervous symptoms on average after 5 to 8 days.
6 hours after the infection, the animals were treated with doses of 0.1-100 mg/kg of body mass, 3 times per day, at 7 a.m., 2 p.m. and 7 p.m., for a period of 5 days. The substances were pre-dissolved in DMSO and resuspended in tylose/PBS (Hoechst) (final concentration 1.5% DMSO, 0.5% tylose in PBS).
After the last administration, the animals were monitored further and the time of death was determined.

[1] = Human alphaherpesvirus 1, Vero cells infected with HSV-1 F, m.o.i. 0.0025, half-maximal fluorescence intensity vs non-infected cell control
[2] = Human alphaherpesvirus 2, Vero cells infected with HSV-2 G, m.o.i. 0.0025, half-maximal fluorescence intensity vs non-infected cell control

Structure (SMILES) | melting point [°C] | other results
Cc1nc(N(C)C(=O)Cc2ccc(-c3ccccc3)cc2)sc1S(=O)(=O)N(C)C | 184 | –
Cc1nc(N(C)C(=O)Cc2ccc(-c3ccncc3F)cc2)sc1S(N)(=O)=O | 223 | –
CNS(=O)(=O)c1sc(N(C)C(=O)Cc2ccc(-c3cccc(C=O)c3)cc2)nc1C | 192 | –
CNS(=O)(=O)c1sc(N(C)C(=O)Cc2ccc(-c3ncccc3N)cc2)nc1C.Cl | 160 | –
Cc1nc(N(C)C(=O)Cc2ccc(-c3cccc(N4CCCC4)c3)cc2)sc1S(N)(=O)=O | 152 | –
CCOc1ccc(CC(=O)N(CCOC)c2nc(C)c(S(N)(=O)=O)s2)cc1 | 165 | –
Cc1nc(N(C)C(=O)Cc2ccc(-c3ccccc3)cc2)sc1S(=O)(=O)NCCNC(=O)OC(C)(C)C | 150 | –
CNS(=O)(=O)c1sc(N(C)C(=O)Cc2ccc(-c3ccc(OC(F)(F)F)cc3)cc2)nc1C | 109 | –
CNS(=O)(=O)c1sc(N(C)C(=O)Cc2ccc(-c3cc(F)ccc3C)cc2)nc1C [Example 8] | 186 | IC50 (HSV-1 F; [1]): 100 nM; IC50 (HSV-2 G; [2]): 100 nM
CNS(=O)(=O)c1sc(N(CCN2CCCC2=O)C(=O)Cc2ccc(-c3ccccc3)cc2)nc1C [Example 23] | 156 | IC50 (HSV-1 F; [1]): 30 nM; IC50 (HSV-2 G; [2]): 100 nM
Cc1nc(N(C)C(=O)Cc2ccc(-c3ccccn3)cc2)sc1S(N)(=O)=O [Example 38, N-[5-(Aminosulphonyl)-4-methyl-1,3-thiazol-2-yl]-N-methyl-2-[4-(2-pyridinyl)phenyl]acetamide] | – | IC50 (HSV-1 F; [1]): 50 nM; IC50 (HSV-2 G; [2]): 16 nM
Cc1nc(N(C)C(=O)Cc2ccc(-c3ccccc3F)cc2)sc1S(N)(=O)=O [Example 57, N-[5-(Aminosulphonyl)-4-methyl-1,3-thiazol-2-yl]-2-(2′-fluoro[1,1′-biphenyl]-4-yl)-N-methylacetamide] | – | IC50 (HSV-1 F; Human alphaherpesvirus 1, Vero): < 10 nM; IC50 (HSV-2 G; Human alphaherpesvirus 2, Vero): < 10 nM; ED50 (HSV-2): ~0.7 mg/kg
Cc1nc(N(C)C(=O)Cc2ccc(-c3cc(F)ccc3F)cc2)sc1S(N)(=O)=O [Example 87, N-[5-(aminosulphonyl)-4-methyl-1,3-thiazol-2-yl]-2-(2′,5′-difluoro-1,1′-biphenyl-4-yl)-N-methylacetamide] | – | IC50 (HSV-1 F; [1]): < 10 nM; IC50 (HSV-2 G; [2]): < 10 nM
Cc1nc(N(C)C(=O)Cc2ccc(-n3cccn3)cc2)sc1S(N)(=O)=O [Example 126, N-[5-(Aminosulphonyl)-4-methyl-1,3-thiazol-2-yl]-N-methyl-2-[4-(1H-pyrazol-1-yl)phenyl]acetamide] | – | IC50 (HSV-1 F; [1]): 10 nM; IC50 (HSV-2 G; [2]): 100 nM

More lines, main results first:

melting point [°C] | Structure (SMILES) | other results
81 | Cc1nc(N(C)C(=O)Cc2ccc(-c3cccc([N+](=O)[O-])c3)cc2)sc1S(=O)(=O)N(C)C | –
79 | COc1ccc(F)cc1-c1ccc(CC(=O)N(CC2CCCO2)c2nc(C)c(S(N)(=O)=O)s2)cc1 (stereo not drawn) | –
130 | Cc1nc(N(C)C(=O)Cc2ccc(-c3ccccc3)cc2F)sc1S(N)(=O)=O | –
193 | CNS(=O)(=O)c1sc(N(C)C(=O)Cc2ccc(-c3cccc(N)c3)cc2)nc1C | –
168 | CCOc1ccc(CC(=O)N(C)c2nc(C)c(S(N)(=O)=O)s2)cc1 | –
231 | Cc1nc(N(C)C(=O)Cc2ccc(-c3cncc(C#N)c3)cc2)sc1S(N)(=O)=O | –
180 | CNS(=O)(=O)c1sc(N(C)C(=O)Cc2ccc(-c3ncccc3C(F)(F)F)cc2)nc1C | –
154 | CCOc1ccc(CC(=O)N(C)c2nc(C)c(S(=O)(=O)N(C)C)s2)cc1 [Example 14] | IC50 (HSV-1 F; [1]): 100 nM; IC50 (HSV-2 G; [2]): 750 nM
